# Measured values: patent US20040146482A1, “Cosmetic and/or pharmaceutical preparations containing an extract of pterocarpus marsupium” (priority 2001, published 2004)
# Tested on: human keratinocytes
# Assay: Cell protecting effect against UV-B in keratinocytes cultivated in vitro
# Format: cell-based
# Conditions: UV-B 50 mJ/cm2, concentration not given
# From the text: Background: UV-B rays cause inflammation (erythema, edema) by activating an enzyme, namely phospholipase A2 or PLA2, which removes arachidonic acid from the phospholipids of the cell membrane. Arachidonic acid is the precursor of the prostaglandins which cause inflammation and cell membrane damage; the prostaglandins E2 (=PGE2) are formed by cyclooxygenase. A UV-challenged cell produces another inflammation mediator, namely interleucine-1-alpha (1′ILα), which is capable of inducing the secretion of prostaglandins.
# Method: The effect of UV-B radiation was investigated in vitro in keratinocytes by determining the release of the cytoplasm enzyme LDH (lactate dehydrogenase) and the(1′ILα) content.
# To carry out the tests, a defined medium containing fetal calf serum was inoculated with the keratinocytes and Trichodyn® was added 72 hours after the inoculation.
# The keratinocytes were then exposed to a dose of UV-B (50 mJ/cm^2-tubes: DUKE GL40E).
# After incubation for another day at 37° C./5% CO2, the LDH content in the supernatant was determined. The LDH (lactate dehydrogenase) content was determined by an enzyme reaction (kit used to determine LDH levels from Roche). In addition , the (1′ILα) content was determined by the ELISA test. The number of adhering keratinocytes was determined (after trypsin treatment) with a particle counter.
compound,measurement,setting,value
CC(=O)Oc1ccccc1C(=O)O [aspirin],(1′ILα) content,UV-B alone = 100,69%
same,Content of released LDH,UV-B alone = 100,66%
same,No. of keratinocytes,"control without UV-B = 100, UV-B alone 17",15%
